From patent US20200255478A1, “NOVEL COMPOUNDS ACTIVATING THE NRF2 PATHWAY” (Almirall, S.A., priority 2017, published 2020)
Where two headings read alike, the source gives them in different places. Starred links: 1 amine or outer side, 2 acyl side, 3 side chain; linkers in the order of their positions; H or OH if unused. Positions of bridges follow the written chain, without caps; N, C: chain ends. Non-standard residues stand in square brackets, D forms with d. Residues, ends and D or L forms follow the SMILES beside them. *: point of attachment. Pyridine(3,5-bisCH2) = c1ncc(C[*:2])cc1C[*:1]; X8 = O=C([C@H](Cc1cccc([*:3])c1)N[*:1])[*:2]; X3 = O=C([C@H](Cc1ccccc1[*:3])N[*:1])[*:2]; X7 = c1ccc(-c2ccccc2C[*:2])c(C[*:1])c1; oXylylene = c1ccc(C[*:2])c(C[*:1])c1; Stearoyl = CCCCCCCCCCCCCCCCCC(=O)*; pXylylene = c1cc(C[*:2])ccc1C[*:1]; βAla = NCCC(=O)O

Target: Keap1-Maltose Binding Protein (MBP tag) (Homo sapiens, UniProt Q14145)
Sequence (Q14145 whole entry): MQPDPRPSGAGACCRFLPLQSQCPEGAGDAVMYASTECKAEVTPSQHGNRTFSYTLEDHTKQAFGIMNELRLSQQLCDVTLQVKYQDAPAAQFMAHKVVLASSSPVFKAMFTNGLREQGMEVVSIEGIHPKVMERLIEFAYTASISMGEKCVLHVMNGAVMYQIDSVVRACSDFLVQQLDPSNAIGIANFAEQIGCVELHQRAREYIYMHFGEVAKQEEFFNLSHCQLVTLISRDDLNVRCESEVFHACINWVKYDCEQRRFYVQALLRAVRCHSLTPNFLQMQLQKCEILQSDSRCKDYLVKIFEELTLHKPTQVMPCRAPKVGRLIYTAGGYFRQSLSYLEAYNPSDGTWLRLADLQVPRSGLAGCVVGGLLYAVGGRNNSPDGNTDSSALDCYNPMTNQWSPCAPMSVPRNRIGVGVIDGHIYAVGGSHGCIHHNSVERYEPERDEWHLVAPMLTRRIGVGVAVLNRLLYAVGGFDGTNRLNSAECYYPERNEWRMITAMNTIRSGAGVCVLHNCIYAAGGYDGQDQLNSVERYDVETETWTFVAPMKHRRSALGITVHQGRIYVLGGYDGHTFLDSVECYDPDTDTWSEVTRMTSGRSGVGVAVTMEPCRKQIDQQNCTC
Assay: Nrf2-Keap1 HTRF (TR-FRET) binding assay: displacement of biotinylated ETGE peptide from Keap1-MBP
[1] = HTRF (TR-FRET), displacement of ETGE-biotin from Keap1-MBP, values banded into grades, read-out: Binding (IC50) ETGE-Keap1

Row | SMILES | IC50 [1] [nM] | IC50 [nM]
1 | CC(C)C[C@H](NC(=O)[C@@H]1CSCc2ccccc2CSC[C@H](NC(=O)[C@H](CCC(N)=O)NC(=O)[C@@H](N)CC(C)C)C(=O)N[C@@H](CC(=O)O)C(=O)N[C@@H](C)C(=O)N[C@@H](CCC(=O)O)C(=O)N[C@@H]([C@@H](C)O)C(=O)NCC(=O)N[C@@H](CCC(=O)O)C(=O)N1)C(=O)N1CCC[C@H]1C(=O)O [Example 19, {[H-Leu-Gln-Cys(&^1)-Asp-Ala-Glu-Thr-Gly-Glu-Cys(&^2)-Leu-Pro-OH][&^1(1,2-phenylenediyl)dimethylene&^2]}] (H-LQCDAETGECLP-OH; linker 3-10 via oXylylene) | 1 to 100 | 
2 | CC(C)C[C@H](NC(=O)[C@@H]1CSCc2ccc(cc2)CSC[C@H](NC(=O)[C@H](CCC(N)=O)NC(=O)[C@@H](N)CC(C)C)C(=O)N[C@@H](CC(=O)O)C(=O)N[C@@H](CCC(=O)O)C(=O)N[C@@H](CCC(=O)O)C(=O)N[C@@H]([C@@H](C)O)C(=O)NCC(=O)N[C@@H](CCC(=O)O)C(=O)N1)C(=O)N1CCC[C@H]1C(=O)O [Example 2, {[H-Leu-Gln-Cys(&^1)-Asp-Glu-Glu-Thr-Gly-Glu-Cys(&^2)-Leu-Pro-OH][&^1(1,4-phenylenediyl)dimethylene&^2]}] (H-LQCDEETGECLP-OH; linker 3-10 via pXylylene) | 100 to 5000 | 
3 | CC(=O)N[C@H]1Cc2cccc(c2)SC[C@@H](C(N)=O)NC(=O)[C@H](CCC(=O)O)NC(=O)CNC(=O)[C@H]([C@@H](C)O)NC(=O)[C@H](CCC(=O)O)NC(=O)[C@H](CCC(=O)O)NC(=O)[C@H](CC(=O)O)NC1=O [Example 22, Acetyl-Phe(m-&^1)-Asp-Glu-Glu-Thr-Gly-Glu-Cys(&^1)-NH2] (Ac-[X8]DEETGEC-NH2; thioether 1-8) | 1 to 100 | 
4 | Cc1cc(C)c2c(C)c1CSC[C@@H](C(=O)N[C@@H](CC(C)C)C(=O)N[C@@H](CC(C)C)C(=O)NCCC(=O)N[C@@H](CCCNC(=N)N)C(=O)N[C@@H](CCCCN)C(=O)N[C@@H](CCCCN)C(=O)N[C@@H](CCCNC(=N)N)C(=O)N[C@@H](CCCNC(=N)N)C(=O)N[C@@H](CCC(N)=O)C(=O)N[C@@H](CCCNC(=N)N)C(=O)N[C@@H](CCCNC(=N)N)C(=O)N[C@@H](CCCNC(=N)N)C(N)=O)NC(=O)[C@H](CCC(=O)O)NC(=O)CNC(=O)[C@H]([C@@H](C)O)NC(=O)[C@H](CCC(=O)O)NC(=O)[C@@H]1CCCN1C(=O)[C@H](CC(=O)O)NC(=O)[C@@H](NC(=O)[C@H](CC(C)C)NC(=O)[C@@H](N)CC(C)C)CSC2 [Example 59] | < 1 | 
5 | CCCCCCCCCCCCCCCCCC(=O)NCCC(=O)N[C@@H](CC(C)C)C(=O)N[C@@H](CCC(N)=O)C(=O)N[C@H]1CSCc2cncc(c2)CSC[C@@H](C(=O)N[C@@H](CC(C)C)C(=O)N2CCC[C@H]2C(N)=O)NC(=O)[C@H](CCC(=O)O)NC(=O)CNC(=O)[C@H]([C@@H](C)O)NC(=O)[C@H](CCC(=O)O)NC(=O)[C@@H]2CCCN2C(=O)[C@H](CC(=O)O)NC1=O [Example 65, {[Stearyl-βAla-Leu-Gln-Cys(&^1)-Asp-Pro-Glu-Thr-Gly-Glu-Cys(&^2)-Leu-Pro-NH2][&^1(pyridine)3,5-diyldimethylene&^2]}] ({Stearoyl-βAla}-LQCDPETGECLP-NH2; linker 3-10 via Pyridine(3,5-bisCH2)) | < 1 | 
6 | CCCCCCCCCCCCCCCCCC(=O)NCCC(=O)N[C@@H](CC(C)C)C(=O)N[C@@H](CCC(N)=O)C(=O)N[C@H]1CSCc2ccccc2CSC[C@@H](C(=O)N[C@@H](CC(C)C)C(=O)N2CCC[C@H]2C(=O)O)NC(=O)[C@H](CCC(=O)O)NC(=O)CNC(=O)[C@H]([C@@H](C)O)NC(=O)[C@H](CCC(=O)O)NC(=O)[C@@H]2CCCN2C(=O)[C@H](CC(=O)O)NC1=O [Example 35, {[Stearyl-βAla-Leu-Gln-Cys(&^1)-Asp-Pro-Glu-Thr-Gly-G1u-Cys(&^2)-Leu-Pro-OH][&^1(1,2-phenylenediyl)dimethylene&^2]}] ({Stearoyl-βAla}-LQCDPETGECLP-OH; linker 3-10 via oXylylene) | 1 to 100 | 
7 | CC(C)C[C@H](NC(=O)[C@@H]1CSCc2ccccc2CSC[C@H](NC(=O)[C@H](CCC(N)=O)NC(=O)[C@@H](N)CC(C)C)C(=O)N[C@@H](CC(=O)O)C(=O)N[C@@H](C)C(=O)N[C@@H](CCC(=O)O)C(=O)N[C@@H]([C@@H](C)O)C(=O)NCC(=O)N[C@@H](CCC(=O)O)C(=O)N1)C(=O)N1CCC[C@H]1C(=O)NCCC(=O)N[C@@H](CCCNC(=N)N)C(=O)N[C@@H](CCCCN)C(=O)N[C@@H](CCCCN)C(=O)N[C@@H](CCCNC(=N)N)C(=O)N[C@@H](CCCNC(=N)N)C(=O)N[C@@H](CCC(N)=O)C(=O)N[C@@H](CCCNC(=N)N)C(=O)N[C@@H](CCCNC(=N)N)C(=O)N[C@@H](CCCNC(=N)N)C(N)=O [Example 18] | 1 to 100 | 
8 | CCCCCCCCCCCCCCCCCC(=O)N[C@H]1C[C@H]2C(=O)N[C@@H](CCC(N)=O)C(=O)N[C@H]3CSCc4ccccc4CSC[C@H](NC(=O)[C@H](CCC(=O)O)NC(=O)CNC(=O)[C@H]([C@@H](C)O)NC(=O)[C@H](CCC(=O)O)NC(=O)[C@@H]4C[C@H](F)CN4C(=O)[C@H](CC(=O)O)NC3=O)C(=O)N[C@@H](CC(C)C)C(=O)N3CCC[C@@H]3C(=O)N2C1 [Example 72, {[&^1Pro((4S)-NH-Stearyl)-Gln-Cys(&^2)-Asp-Pro((4S)-F)-Glu-Thr-Gly-Glu-Cys(&^3)-Leu-D-Pro&^1][&^2(1,2-phenylenediyl)dimethylene&^2]}] |  | 1 to 100
9 | CCCCCCCCCCCCCCCCCC(=O)N[C@H]1C[C@H]2C(=O)N[C@@H](CCC(N)=O)C(=O)N[C@H]3CSCC4(COC4)CSC[C@H](NC(=O)[C@H](CCC(=O)O)NC(=O)CNC(=O)[C@H]([C@@H](C)O)NC(=O)[C@H](CCC(=O)O)NC(=O)[C@@H]4CSCN4C(=O)[C@H](CC(=O)O)NC3=O)C(=O)N[C@@H](CC(C)C)C(=O)N3CCC[C@@H]3C(=O)N2C1 [Example 97, {[&^1Pro((4S)-NH-Stearyl)-Gln-Cys(&^2)-Asp-Thz-Glu-Thr-Gly-Glu-Cys(&^3)-Leu-D-Pro&^1][&^2(3,3-oxetanediyl)dimethylene&^3]}] | < 1 | 
10 | CC(=O)N[C@H]1C[C@H]2C(=O)N[C@@H](CCC(N)=O)C(=O)N[C@H]3CSCc4ccccc4CSC[C@H](NC(=O)[C@H](CCC(=O)O)NC(=O)CNC(=O)[C@H]([C@@H](C)O)NC(=O)[C@H](CCC(=O)O)NC(=O)[C@@H]4CCCN4C(=O)[C@H](CC(=O)O)NC3=O)C(=O)N[C@@H](CC(C)C)C(=O)N3CCC[C@@H]3C(=O)N2C1 [Example 64, {[&^1Pro((4S)-NH-Acetyl)-Gln-Cys(&^2)-Asp-Pro-Glu-Thr-Gly-Glu-Cys(&^3)-Leu-D-Pro&^1][&^2(1,2-phenylenediy1)dimethylene&^3]}] |  | < 1
11 | CC(C)C[C@H](NC(=O)[C@@H]1CSCc2ccccc2CSC[C@H](NC(=O)[C@H](CCC(N)=O)NC(=O)[C@@H](N)CC(C)C)C(=O)N[C@@H](CC(=O)O)C(=O)N[C@@H](Cc2ccc(F)cc2)C(=O)N[C@@H](CCC(=O)O)C(=O)N[C@@H]([C@@H](C)O)C(=O)NCC(=O)N[C@@H](CCC(=O)O)C(=O)N1)C(=O)N1CCC[C@H]1C(=O)NCCC(=O)N[C@@H](CCCNC(=N)N)C(=O)N[C@@H](CCCCN)C(=O)N[C@@H](CCCCN)C(=O)N[C@@H](CCCNC(=N)N)C(=O)N[C@@H](CCCNC(=N)N)C(=O)N[C@@H](CCC(N)=O)C(=O)N[C@@H](CCCNC(=N)N)C(=O)N[C@@H](CCCNC(=N)N)C(=O)N[C@@H](CCCNC(=N)N)C(N)=O [Example 71] | 1 to 100 | 
12 | CC(=O)N[C@H]1CSCc2ccccc2-c2ccccc2CSC[C@@H](C(N)=O)NC(=O)[C@H](CCC(=O)O)NC(=O)CNC(=O)[C@H]([C@@H](C)O)NC(=O)[C@H](CCC(=O)O)NC(=O)[C@H](CCC(=O)O)NC(=O)[C@H](CC(=O)O)NC1=O [Example 24, {[Acetyl-Cys(&^1)-Asp-Glu-Glu-Thr-Gly-Glu-Cys(&^2)-NH2][&^1(1,1′-biphenyl)2,2′-diyldimethylene&^2]}] (Ac-CDEETGEC-NH2; linker 1-8 via X7) | 1 to 100 | 
13 | CC(=O)N[C@H]1Cc2ccccc2SC[C@@H](C(N)=O)NC(=O)[C@H](CCC(=O)O)NC(=O)CNC(=O)[C@H]([C@@H](C)O)NC(=O)[C@H](CCC(=O)O)NC(=O)[C@H](CCC(=O)O)NC(=O)[C@H](CC(=O)O)NC1=O [Example 23, Acetyl-Phe(o-&^1)-Asp-Glu-Glu-Thr-Gly-Glu-Cys(&^1)-NH2] (Ac-[X3]DEETGEC-NH2; thioether 1-8) | 1 to 100 | 
14 | CCCCCCCCCCCCCCCCCC(=O)NCCC(=O)N[C@H](C(=O)N[C@H](C(=O)N[C@H]1CSCc2ccccc2CSC[C@@H](C(=O)N[C@H](C(=O)N[C@H](C(N)=O)C(C)C)C(C)C)NC(=O)[C@H](CCC(=O)O)NC(=O)CNC(=O)[C@H]([C@@H](C)O)NC(=O)[C@H](CCC(=O)O)NC(=O)[C@@H]2CCCN2C(=O)[C@H](CC(=O)O)NC1=O)C(C)C)C(C)C [Example 52, {[Stearyl-βAla-Val-Val-Cys(&^1)-Asp-Pro-Glu-Thr-Gly-Glu-Cys(&^2)-Val-Val-NH2][&^1(1,2-phenylenediyl)dimethylene&^2]}] ({Stearoyl-βAla}-VVCDPETGECVV-NH2; linker 3-10 via oXylylene) | 1 to 100 | 
15 | CCCCCCCCCCCC(=O)N[C@H]1C[C@H]2C(=O)N[C@@H](CCC(N)=O)C(=O)N[C@H]3CSCc4ccccc4CSC[C@H](NC(=O)[C@H](CCC(=O)O)NC(=O)CNC(=O)[C@H]([C@@H](C)O)NC(=O)[C@H](CCC(=O)O)NC(=O)[C@@H]4CCCN4C(=O)[C@H](CC(=O)O)NC3=O)C(=O)N[C@@H](CC(C)C)C(=O)N3CCC[C@@H]3C(=O)N2C1 [Example 85, {[&^1Pro((4S)-NH-Lauryl)-Gln-Cys(&^2)-Asp-Pro-Glu-Thr-Gly-Glu-Cys(&^3)-Leu-D-Pro&^1][&^2(1,2-phenylenediyl)dimethylene&^3]}] |  | < 1
16 | CCCCCCCCCCCCCCCCCCCC(=O)N[C@H]1C[C@H]2C(=O)N[C@@H](CCC(N)=O)C(=O)N[C@H]3CSCc4ccccc4CSC[C@H](NC(=O)[C@H](CCC(=O)O)NC(=O)CNC(=O)[C@H]([C@@H](C)O)NC(=O)[C@H](CCC(=O)O)NC(=O)[C@@H]4CCCN4C(=O)[C@H](CC(=O)O)NC3=O)C(=O)N[C@@H](CC(C)C)C(=O)N3CCC[C@@H]3C(=O)N2C1 [Example 90, {[&^1Pro((4S)-NH-arachidyl)-Gln-Cys(&^2)-Asp-Pro-Glu-Thr-Gly-Glu-Cys(&^3)-Leu-D-Pro&^1][&^2(1,2-phenylenediyl)dimethylene&^3]}] |  | < 1
